Results taken from patent publication US7893083B2, “Method of treating genital herpes” (priority 2003, dated 2011).

How the values were obtained:
IFN-a = IFN-a ELISA of nasal secretions after nasal application of imiquimod in macaques; format: in vivo, Macaca mulatta
Source text: (§1) The assay was limited to examining nasal secretions following nasal application (both nares) of imiquimod, because it is believed that this is the entry site where an immune response will be first observed. The assay evaluated the appearance of […] IFN-α and TNF-a in Macaca mulatta macaques and compared it with a control group treated with a base cream (without imiquimod) or simply anesthetized for the same time interval as the treated group.
(§2) The significance of the data is two-fold. First, intranasal administration of imiquimod cream (5%) produced enough IFN-a in a short period of time, so the cream can be applied daily in order to have 5-6 h of good efficacy. Thus, for example, one can begin applying the cream prior to encountering a known viral area such as an airplane. However, the cream has known cytotoxic effects (mediated through the cytokine production), especially if applied for weeks, so extended application would not be recommended. In the assay, TNF-a remained high for at least 6 h. In the treated group of macaques, the cream was washed away with warm water after the experiments. […] The cream needs to be applied to induce maximum concentration of IFN-a, but it may be removed when TNF-a continues to be elevated (after 6 h).
(§3) The control group (n=3) and the treated group (n=5) were sedated with glycopyrolate 0.01 mg/kg+acetaminophen 0.2 mg/kg and anesthetized with zolazepam (Telazol) 10 mg/kg intramuscular. […] Physical examination after each sample and at 6 h, 12 h, and 24 h post anesthesia consisted of examining each macaque for fever, erythema, erosion, flaking, and lacrimation.
(§4) IFN-a and TNF-a enzyme-linked immunoabsorbent assays (ELISA). Levels of IFN-a and TNF-a were measured using commercially available multispecies kit (PBL Biomedical Laboratories) (product #41105-1). The range of detection was 10-500 pg/ml (high sensitivity protocol).

viral rhinitis [1] = assay: Viral rhinitis test subjects, delayed or once-daily Aldara in each nostril (Example 2); format: in vivo, human; conditions: applied more than 2 days after the onset of the cold symptoms
Procedure: The swab head was inserted into a naris.
Infected Test Subject #1 developed a sore throat with tingling in larynx, pharynx and uvula. 12 hours later, Subject 1 also developed congestion of the nose. One day later, the subject's initial symptoms intensified, and the subject further developed systemic symptoms such as malaise and headache. More than twenty four hours after the initial viral rhinitis symptoms appeared, Aldara™ was applied in each nostril with a Q-tip swab.
A 4 mm^3 dab of salve was placed on the swab head. The swab head was inserted into a naris. […] The subject was also treated with 2 teaspoons of standard cough suppressant guaifenesin/dextromethorphan (Wal-Tussin). The next day, malaise and headache were more pronounced and Aldara™ was reapplied with Q-tip to each nostril as described above. Also, 2 teaspoons of guaifenesin/dextromethorphan was administered.
Infected Test Subject #2 developed common cold with rhinorrhea and nose congestion. Aldara™ was applied once to each nostril every day for 3 days.

TNF-a = TNF-a ELISA of nasal secretions after nasal application of imiquimod in macaques; format: in vivo, Macaca mulatta
Source text: as §1, §2, §3, §4

IFN-a mRNA = IFN-a mRNA in postnasal swabs by quantitative competitive RT-PCR in macaques
HSV-2 [2] = assay: Remission interval between genital herpes outbreaks after intranasal Aldara regimens (Example 3); format: in vivo, human; conditions: after 2 to 4 regimens
Procedure: The patients were diagnosed with HSV-2 due to typical outbreak symptoms such as lesions. […] Thus, the contents were applied thoroughly along the inside surface of both nares. Initial application of Aldara™ to all the four patients occurred within 12 hours after the appearance of first symptoms resembling an outbreak of genital herpes. The application procedure was repeated every 12 hours up to 48 hours so that a total of four applications was administered to each patient.
Prior to treatment with Aldara™, the four patients were having herpes outbreaks at fairly regular intervals. Patients 1, 2 and 3 were experiencing outbreaks every 2 to 3 months and Patient 4 was having outbreaks once a month. Each of the four patients then began treatment by undergoing the 48 hour Aldara™ regimen detailed above each time he or she experienced an outbreak. After undergoing 2 to 4 regimens, each patient experienced a prolonged period of remission before the next outbreak.

TLR7 = molecular target: T1, TLR7 (Homo sapiens, UniProt Q9NYK1); conditions: cited from earlier work
T1 sequence (Q9NYK1 27-1049): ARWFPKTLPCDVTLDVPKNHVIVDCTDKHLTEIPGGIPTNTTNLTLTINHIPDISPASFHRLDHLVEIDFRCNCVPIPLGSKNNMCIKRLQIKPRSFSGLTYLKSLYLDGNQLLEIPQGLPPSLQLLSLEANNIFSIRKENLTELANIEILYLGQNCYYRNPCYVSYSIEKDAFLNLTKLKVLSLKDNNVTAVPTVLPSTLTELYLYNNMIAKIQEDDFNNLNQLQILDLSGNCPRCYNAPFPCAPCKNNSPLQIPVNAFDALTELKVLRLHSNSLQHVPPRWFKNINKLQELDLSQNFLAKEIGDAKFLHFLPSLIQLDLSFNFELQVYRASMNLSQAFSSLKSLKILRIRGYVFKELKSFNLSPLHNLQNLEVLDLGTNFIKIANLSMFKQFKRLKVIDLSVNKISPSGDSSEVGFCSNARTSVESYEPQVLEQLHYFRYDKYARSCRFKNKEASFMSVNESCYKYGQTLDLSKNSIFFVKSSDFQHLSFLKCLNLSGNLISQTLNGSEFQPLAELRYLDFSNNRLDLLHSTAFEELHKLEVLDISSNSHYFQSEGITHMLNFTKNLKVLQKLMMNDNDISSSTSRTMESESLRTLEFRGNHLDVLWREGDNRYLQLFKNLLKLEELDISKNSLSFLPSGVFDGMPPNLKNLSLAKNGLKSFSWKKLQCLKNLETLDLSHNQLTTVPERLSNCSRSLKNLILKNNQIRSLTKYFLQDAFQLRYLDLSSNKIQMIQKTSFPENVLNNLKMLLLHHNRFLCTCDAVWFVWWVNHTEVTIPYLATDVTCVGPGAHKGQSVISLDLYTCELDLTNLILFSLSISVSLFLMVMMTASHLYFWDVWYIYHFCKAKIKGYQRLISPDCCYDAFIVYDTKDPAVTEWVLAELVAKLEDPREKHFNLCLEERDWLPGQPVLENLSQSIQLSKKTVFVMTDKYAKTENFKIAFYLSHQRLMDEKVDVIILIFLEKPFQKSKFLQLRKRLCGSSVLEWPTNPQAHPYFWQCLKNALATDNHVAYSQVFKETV

HSV-2 [3] = conditions: 235 human patients; topical application to herpes lesions; cited from earlier work
[4] = system: purified plasmacytoid dendritic cells; conditions: cited from earlier work
[5] = Physical examination of macaques for adverse or cytotoxic effects after nasal Aldara
viral rhinitis [6] = system: viral rhinitis
Source text: In each of the tests, an imiquimod salve was used. The formulation was that commonly used to treat warts and sold under the brand name Aldara™. The salve was applied to each naris of the test subject by use of a common cotton swab. Either a 4 mm^3 dab of salve or ½ pack of 5% Aldara™ was placed on the swab head. The swab head was inserted into a naris. The swab was moved around inside the naris to distribute the salve over the mucosal membrane of the naris. Immediately, after application of the Aldara™ to the subject's first naris, a swab was used to apply the Aldara™ to the subject's second naris. Immediately after application to each naris, the salve was massaged into the mucosal membrane of each naris.
A test sample of six patients was treated for viral rhinitis using imiquimod (5% topical cream Aldara™, manufactured by 3M Corporation, St. Paul, Minn.). The patients were diagnosed with viral rhinitis due to initial symptoms such as congested nasal passages (rhinitis), nasal drip or rhinorrhea, and sneezing. Contents from ½ packet of a standard imiquimod formulation such as, for example, Aldara™ were applied with a cotton swab into both nares by massaging gently but thoroughly. Approximately the contents from ½ packet of 5% Aldara™ was applied thoroughly along the inside surface of both nares. Initial application of Aldara™ to all the six patients occurred within 24 hours after the appearance of first symptoms resembling viral rhinitis, in order to maximize the efficiency of imiquimod in stimulating the immune system when the viral load is presumably smaller. The procedure was repeated every 12 hours for up to 48 hours. The imiquimod packets were refrigerated after opening, and the remaining contents were used for subsequent applications.
The patients were monitored for changes in the viral rhinitis symptoms.

[7] = nasal secretions, p<0.0001 versus control group

CC(C)Cn1cnc2c(N)nc3ccccc3c21 [imiquimod]
IFN-a level relative to basal level (IFN-a; 3 h post treatment): 5 times basal level | IFN-a level (IFN-a; 4 h post treatment): near maximal level | IFN-a level (IFN-a; 6 h post treatment): near basal level | IFN-a increase over time (ELISA, FIG. 6A) (IFN-a; [7]): 630 ng/mg protein | Time of rapid induction of IFN-a post treatment (IFN-a; single nasal application): 1 to 5 h | Effectiveness of the treatment with late application (viral rhinitis [1]): decreased markedly | TNF-a level relative to the controls (TNF-a; 6 h post nasal treatment): 3 times | TNF-a level (TNF-a; 6 h post treatment): remaining high | TNF-a increase over time (ELISA, FIG. 6B) (TNF-a; [7]): 540 ng/mg protein | Time of TNF-a peak (TNF-a; post treatment): 4 h | IFN-a level in treated animals, mean (IFN-a mRNA; samples taken 3-5 h after application, p=0.004 versus controls): 2.3 IFN-a/albumin mRNA×10^3 | IFN-a level in treated animals, range (IFN-a mRNA; samples taken 3-5 h after application, related to albumin mRNA): 0.84-5.20 mRNA×10^3 | Increase of IFN-a messenger RNA levels in nasal secretions compared with untreated macaques (IFN-a mRNA; single nasal application): 2-5 fold | Post-Treatment Remission Interval (Approximate) (HSV-2 [2]; Patient 1, pre-treatment interval 2-3 months): ~3.5 years | Post-Treatment Remission Interval (Approximate) (HSV-2 [2]; Patient 2, pre-treatment interval 2-3 months): ~6 months | Post-Treatment Remission Interval (Approximate) (HSV-2 [2]; Patient 3, pre-treatment interval 2-3 months): ~10 months | Post-Treatment Remission Interval (Approximate) (HSV-2 [2]; Patient 4, pre-treatment interval 1 month): ~2 months | Activity at TLR7 (TLR7): TLR7 agonists | Outbreak recurrence times, imiquimod versus placebo (HSV-2 [3]): no statistically significant difference | IFN-a induction [4]: induce IFN-a | Adverse reactions to treatment in macaques ([5]; cream used during short period of time): No adverse reactions | Cytotoxic effects on examination ([5]; examined at 6 h, 12 h, or 24 h, cream washed away after the experiments): No animal had cytotoxic effects when examined at 6 h, 12 h, or 24 h, except one animal, which had an episode of lacrimation for 12 h post treatment | Effect of accidental inhalation of imiquimod (viral rhinitis [6]; one patient inhaled imiquimod): severe flu-like symptoms that spontaneously subsided within 24 hours | Aggravation of ulcerative colitis during treatment (viral rhinitis [6]; one patient with ulcerative colitis): did not suffer any further aggravation | Complete disappearance of symptoms (nasal congestion, sore throat, headache; malaise), time of treatment (viral rhinitis [6]; six patients, untreated viral rhinitis about a week or 10 days): ≤ 48 h | Side effects reported by patients (viral rhinitis [6]; throughout the course of treatment): No untoward side effects
